Assay results from ChEMBL document CHEMBL1133112, “Structure-function relationships in aminoquinolines: effect of amino and chloro groups on quinoline-hematin complex formation, inhibition of beta-hematin formation, and antiplasmodial activity” (J Med Chem, 2000).
Calls of active or inactive are those of the source. No cut-off for these calls is given here.

How the values were obtained:
[1] = test system: Plasmodium falciparum; assay: In vitro antiplasmodial activity against Plasmodium falciparum D10; format: functional, organism-based
[2] = test system: Ferriprotoporphyrin IX
Description: Association constant with ferriprotoporphyrin IX.

[3] = molecular target: T1, Histidine-rich protein PFHRP-II (Plasmodium falciparum) (UniProt P05227)
T1 sequence (whole entry): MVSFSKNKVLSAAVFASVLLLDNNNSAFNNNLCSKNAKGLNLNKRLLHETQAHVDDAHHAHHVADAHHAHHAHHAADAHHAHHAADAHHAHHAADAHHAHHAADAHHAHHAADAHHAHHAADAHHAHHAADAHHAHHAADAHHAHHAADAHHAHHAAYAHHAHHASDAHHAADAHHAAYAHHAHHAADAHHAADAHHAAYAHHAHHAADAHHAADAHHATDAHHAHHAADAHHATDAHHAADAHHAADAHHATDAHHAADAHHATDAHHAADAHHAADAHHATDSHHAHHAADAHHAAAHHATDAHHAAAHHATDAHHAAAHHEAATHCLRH

[4] = test system: Ferriprotoporphyrin IX; assay: LogK (Association constant) with ferriprotoporphyrin IX.

With Nc1cccc2cccnc12 [8-AMINOQUINOLINE] the IC50 [1] was greater than 10 µM, the Log K [2] was less than 2.5 and the NI [3] was “No inhibition”.
NCCNc1ccnc2cc(Cl)ccc12 was tested, and the IC50 [1] was 0.092 µM and the Log K [2] was 4.93.
In the case of CNc1ccnc2ccccc12, the IC50 [1] is reported as greater than 10 µM, the Log K [2] is reported as 4.38 and the NI [3] is reported as “No inhibition”.
With Nc1ccc2ncccc2c1 the IC50 [1] was greater than 10 µM, the Log K [2] was less than 2.5 and the NI [3] was “No inhibition”.
OCCNc1ccnc2cc(Cl)ccc12 was tested, and the IC50 [1] was 5.07 µM and the Log K [2] was 4.66.
For CCN(CC)CCNc1ccnc2cc(Cl)ccc12, the IC50 [1] was 0.049 µM, the Log K2 [4] was 4.47 and the Log K [2] was 5.81.
Nc1ccnc2cc(Cl)ccc12 was tested, and the IC50 [1] was 3.8 µM and the Log K [2] was 4.43.
Nc1ccnc2ccccc12 [QUINOLIN-4-AMINE] was tested, and the IC50 [1] was greater than 10 µM, the Log K [2] was 4.49 and the NI [3] was “No inhibition”.
In the case of Nc1cccc2ncccc12, the IC50 [1] is reported as greater than 10 µM, the Log K [2] is reported as less than 2.5 and the NI [3] is reported as “No inhibition”.
CNc1ccc2ccccc2n1 was tested, and the IC50 [1] was greater than 10 µM, the Log K [2] was 4.26 and the NI [3] was “inactive”.
In the case of NCCNc1ccc2ccccc2n1, the IC50 [1] is reported as greater than 10 µM, the Log K [2] is reported as 4.34 and the NI [3] is reported as “No inhibition”.
In the case of NCCNc1ccnc2ccccc12, the IC50 [1] is reported as 4.7 µM, the Log K [2] is reported as 4.59 and the NI [3] is reported as “No inhibition”.
With c1ccc2ncccc2c1 [QUINOLINE] the IC50 [1] was greater than 10 µM, the Log K [2] was less than 2.5 and the NI [3] was “inactive”.
For Nc1cnc2ccccc2c1, the IC50 [1] was greater than 10 µM, the Log K [2] was less than 2.5 and the NI [3] was “inactive”.
With OCCNc1ccnc2ccccc12 the IC50 [1] was greater than 10 µM, the Log K [2] was 4.18 and the NI [3] was “No inhibition”.
CCN(CC)CCNc1ccnc2ccccc12 gave an IC50 [1] of 0.799 µM, a Log K2 [4] of 3.2 and a Log K [2] of 4.75. The NI [3] was “No inhibition”.
Clc1ccc2c(Cl)ccnc2c1 was tested, and the IC50 [1] was greater than 10 µM, the Log K [2] was less than 2.5 and the NI [3] was “No inhibition”.
For CC(=O)NCCNc1ccnc2ccccc12, the IC50 [1] was greater than 10 µM, the Log K [2] was 4.28 and the NI [3] was “No inhibition”.
Molecule CN(C)CCNc1ccnc2cc(Cl)ccc12 has an IC50 [1] of 0.0809 µM and a Log K [2] of 4.96.
With CNc1ccnc2cc(Cl)ccc12 the IC50 [1] was 4 µM and the Log K [2] was 4.48.
